Reference: US20250230193A1, “CYCLIC COMPOUND HAVING SELECTIVE KRAS INHIBITORY EFFECT ON HRAS AND NRAS” (CHUGAI SEIYAKU KABUSHIKI KAISHA, priority 2022, published 2025)
Where a SMILES comes first, the peptide text is derived from it. Bridges are numbered along the chain shown (N, C = ends). [ ]: non-standard residue; d: D form. The star is where a group is joined. hPhe(3-Cl-4-CF3) = N[C@@H](CCc1ccc(C(F)(F)F)c(Cl)c1)C(=O)O; NPrPhe(4-CF3) = CCCN[C@@H](Cc1ccc(C(F)(F)F)cc1)C(=O)O; NMeGly(cPent) = CN[C@H](C(=O)O)C1CCCC1; Pro(4,4-F2) = O=C(O)[C@@H]1CC(F)(F)CN1; Hyp = O=C(O)[C@@H]1C[C@@H](O)CN1; NMeL = CN[C@@H](CC(C)C)C(=O)O; Morpholide = C1CN(*)CCO1; Ac5c = NC1(C(=O)O)CCCC1; Ac4c = NC1(C(=O)O)CCC1; NEtG = CCNCC(=O)O; Sar = CNCC(=O)O

Legend:
[1] = molecular target: GDP-bound NRAS wild-type protein (Homo sapiens, UniProt P01111); test: Binding to NRAS by surface plasmon resonance (SPR), Single Cycle Kinetics; settings: KD ratio NRAS/KRAS, SPR
[2] = molecular target: GDP-bound HRAS wild-type protein (Homo sapiens, UniProt P01112); test: Binding to HRAS by surface plasmon resonance (SPR), Single Cycle Kinetics; settings: KD ratio HRAS/KRAS, SPR
GDP-bound HRAS wild-type protein, sequence (P01112 whole entry): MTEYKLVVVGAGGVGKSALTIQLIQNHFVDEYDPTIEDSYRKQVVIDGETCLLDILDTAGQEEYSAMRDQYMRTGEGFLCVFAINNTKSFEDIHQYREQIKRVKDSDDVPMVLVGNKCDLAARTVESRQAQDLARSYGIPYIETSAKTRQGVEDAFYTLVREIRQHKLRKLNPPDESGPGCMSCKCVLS

GDP-bound NRAS wild-type protein, sequence (P01111 whole entry): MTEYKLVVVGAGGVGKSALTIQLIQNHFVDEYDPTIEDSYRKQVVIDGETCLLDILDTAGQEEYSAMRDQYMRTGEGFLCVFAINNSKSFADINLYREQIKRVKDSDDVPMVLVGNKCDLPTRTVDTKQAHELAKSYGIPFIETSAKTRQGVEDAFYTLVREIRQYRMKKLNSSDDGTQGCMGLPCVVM

Structure (SMILES)	NRAS/KRAS (ratio of KD for GDP-bound NRAS wild-type to KD for KRAS) [1]	HRAS/KRAS (ratio of KD for GDP-bound HRAS wild-type to KD for KRAS) [2]
CCCN1C(=O)CN(C)C(=O)CN(C)C(=O)[C@H]([C@@H](C)CC)NC(=O)[C@H](CC(C)C)N(C)C(=O)C[C@@H](C(=O)N2CCOCC2)NC(=O)[C@H](C2CCCC2)N(C)C(=O)C2(CCC2)NC(=O)[C@@H]2C[C@@H](OCC)CN2C(=O)[C@H](CCc2ccc(C(F)(F)F)c(Cl)c2)NC(=O)CN(C)C(=O)[C@@H]1Cc1ccc(C(F)(F)F)cc1 [PP0324] ([NMeL]I[Sar][Sar][NPrPhe(4-CF3)][Sar][hPhe(3-Cl-4-CF3)][Hyp](Et)[Ac4c][NMeGly(cPent)]D-Morpholide; lactam N-11)	B (a compound having 3 or more and less than 10 is denoted as B)	B (a compound having 3 or more and less than 10 is denoted as B)
CCCN1C(=O)CN(C)C(=O)CNC(=O)[C@H]([C@@H](C)CC)NC(=O)[C@H](CC(C)C)N(C)C(=O)C[C@@H](C(=O)N2CCOCC2)NC(=O)[C@H](C2CCCC2)N(C)C(=O)C2(CCCC2)NC(=O)[C@@H]2CCCN2C(=O)[C@H](CCc2ccc(C(F)(F)F)c(Cl)c2)NC(=O)CN(C)C(=O)[C@@H]1Cc1ccc(C(F)(F)F)cc1 [PP0325] ([NMeL]IG[Sar][NPrPhe(4-CF3)][Sar][hPhe(3-Cl-4-CF3)]P[Ac5c][NMeGly(cPent)]D-Morpholide; lactam N-11)	B (a compound having 3 or more and less than 10 is denoted as B)	B (a compound having 3 or more and less than 10 is denoted as B)
CCCN1C(=O)CN(C)C(=O)CNC(=O)[C@H]([C@@H](C)CC)NC(=O)[C@H](CC(C)C)N(C)C(=O)C[C@@H](C(=O)N2CCOCC2)NC(=O)[C@H](C2CCCC2)N(C)C(=O)C2(CCC2)NC(=O)[C@@H]2CCCN2C(=O)[C@H](CCc2ccc(C(F)(F)F)c(Cl)c2)NC(=O)CN(C)C(=O)[C@@H]1Cc1ccc(C(F)(F)F)cc1 [PP0326] ([NMeL]IG[Sar][NPrPhe(4-CF3)][Sar][hPhe(3-Cl-4-CF3)]P[Ac4c][NMeGly(cPent)]D-Morpholide; lactam N-11)	B (a compound having 3 or more and less than 10 is denoted as B)	B (a compound having 3 or more and less than 10 is denoted as B)
CCCN1C(=O)CN(C)C(=O)CNC(=O)[C@H]([C@@H](C)CC)NC(=O)[C@H](CC(C)C)N(C)C(=O)C[C@@H](C(=O)N2CCOCC2)NC(=O)[C@H](C2CCCC2)N(C)C(=O)C2(CCCC2)NC(=O)[C@@H]2CC(F)(F)CN2C(=O)[C@H](CCc2ccc(C(F)(F)F)c(Cl)c2)NC(=O)CN(C)C(=O)[C@@H]1Cc1ccc(C(F)(F)F)cc1 [PP0327] ([NMeL]IG[Sar][NPrPhe(4-CF3)][Sar][hPhe(3-Cl-4-CF3)][Pro(4,4-F2)][Ac5c][NMeGly(cPent)]D-Morpholide; lactam N-11)	B (a compound having 3 or more and less than 10 is denoted as B)	B (a compound having 3 or more and less than 10 is denoted as B)
CCCN1C(=O)CN(C)C(=O)CNC(=O)[C@H]([C@@H](C)CC)NC(=O)[C@H](CC(C)C)N(C)C(=O)C[C@@H](C(=O)N2CCOCC2)NC(=O)[C@H](C2CCCC2)N(C)C(=O)C2(CCC2)NC(=O)[C@@H]2CC(F)(F)CN2C(=O)[C@H](CCc2ccc(C(F)(F)F)c(Cl)c2)NC(=O)CN(C)C(=O)[C@@H]1Cc1ccc(C(F)(F)F)cc1 [PP0328] ([NMeL]IG[Sar][NPrPhe(4-CF3)][Sar][hPhe(3-Cl-4-CF3)][Pro(4,4-F2)][Ac4c][NMeGly(cPent)]D-Morpholide; lactam N-11)	B (a compound having 3 or more and less than 10 is denoted as B)	B (a compound having 3 or more and less than 10 is denoted as B)
CCCN1C(=O)CN(C)C(=O)CNC(=O)[C@H]([C@@H](C)CC)NC(=O)[C@H](CC(C)C)N(C)C(=O)C[C@@H](C(=O)N2CCOCC2)NC(=O)[C@H](C2CCCC2)N(C)C(=O)C2(CCCC2)NC(=O)[C@@H]2C[C@@H](OCC)CN2C(=O)[C@H](CCc2ccc(C(F)(F)F)c(Cl)c2)NC(=O)CN(C)C(=O)[C@@H]1Cc1ccc(C(F)(F)F)cc1 [PP0329] ([NMeL]IG[Sar][NPrPhe(4-CF3)][Sar][hPhe(3-Cl-4-CF3)][Hyp](Et)[Ac5c][NMeGly(cPent)]D-Morpholide; lactam N-11)	B (a compound having 3 or more and less than 10 is denoted as B)	C (A compound having a KD ratio of 0.1 or more and less than 3 is denoted as C)
CCCN1C(=O)CN(C)C(=O)CNC(=O)[C@H]([C@@H](C)CC)NC(=O)[C@H](CC(C)C)N(C)C(=O)C[C@@H](C(=O)N2CCOCC2)NC(=O)[C@H](C2CCCC2)N(C)C(=O)C2(CCC2)NC(=O)[C@@H]2C[C@@H](OCC)CN2C(=O)[C@H](CCc2ccc(C(F)(F)F)c(Cl)c2)NC(=O)CN(C)C(=O)[C@@H]1Cc1ccc(C(F)(F)F)cc1 [PP0330] ([NMeL]IG[Sar][NPrPhe(4-CF3)][Sar][hPhe(3-Cl-4-CF3)][Hyp](Et)[Ac4c][NMeGly(cPent)]D-Morpholide; lactam N-11)	B (a compound having 3 or more and less than 10 is denoted as B)	C (A compound having a KD ratio of 0.1 or more and less than 3 is denoted as C)
CCCN1C(=O)CN(C)C(=O)CN(CC)C(=O)[C@H]([C@@H](C)CC)NC(=O)[C@H](CC(C)C)N(C)C(=O)C[C@@H](C(=O)N2CCOCC2)NC(=O)[C@H](C2CCCC2)N(C)C(=O)C2(CCCC2)NC(=O)[C@@H]2CCCN2C(=O)[C@H](CCc2ccc(C(F)(F)F)c(Cl)c2)NC(=O)CN(C)C(=O)[C@@H]1Cc1ccc(C(F)(F)F)cc1 [PP0331] ([NMeL]I[NEtG][Sar][NPrPhe(4-CF3)][Sar][hPhe(3-Cl-4-CF3)]P[Ac5c][NMeGly(cPent)]D-Morpholide; lactam N-11)	B (a compound having 3 or more and less than 10 is denoted as B)	B (a compound having 3 or more and less than 10 is denoted as B)
CCCN1C(=O)CN(C)C(=O)CN(CC)C(=O)[C@H]([C@@H](C)CC)NC(=O)[C@H](CC(C)C)N(C)C(=O)C[C@@H](C(=O)N2CCOCC2)NC(=O)[C@H](C2CCCC2)N(C)C(=O)C2(CCC2)NC(=O)[C@@H]2CCCN2C(=O)[C@H](CCc2ccc(C(F)(F)F)c(Cl)c2)NC(=O)CN(C)C(=O)[C@@H]1Cc1ccc(C(F)(F)F)cc1 [PP0332] ([NMeL]I[NEtG][Sar][NPrPhe(4-CF3)][Sar][hPhe(3-Cl-4-CF3)]P[Ac4c][NMeGly(cPent)]D-Morpholide; lactam N-11)	B (a compound having 3 or more and less than 10 is denoted as B)	B (a compound having 3 or more and less than 10 is denoted as B)
CCCN1C(=O)CN(C)C(=O)CN(CC)C(=O)[C@H]([C@@H](C)CC)NC(=O)[C@H](CC(C)C)N(C)C(=O)C[C@@H](C(=O)N2CCOCC2)NC(=O)[C@H](C2CCCC2)N(C)C(=O)C2(CCCC2)NC(=O)[C@@H]2CC(F)(F)CN2C(=O)[C@H](CCc2ccc(C(F)(F)F)c(Cl)c2)NC(=O)CN(C)C(=O)[C@@H]1Cc1ccc(C(F)(F)F)cc1 [PP0333] ([NMeL]I[NEtG][Sar][NPrPhe(4-CF3)][Sar][hPhe(3-Cl-4-CF3)][Pro(4,4-F2)][Ac5c][NMeGly(cPent)]D-Morpholide; lactam N-11)	B (a compound having 3 or more and less than 10 is denoted as B)	C (A compound having a KD ratio of 0.1 or more and less than 3 is denoted as C)
CCCN1C(=O)CN(C)C(=O)CN(CC)C(=O)[C@H]([C@@H](C)CC)NC(=O)[C@H](CC(C)C)N(C)C(=O)C[C@@H](C(=O)N2CCOCC2)NC(=O)[C@H](C2CCCC2)N(C)C(=O)C2(CCC2)NC(=O)[C@@H]2CC(F)(F)CN2C(=O)[C@H](CCc2ccc(C(F)(F)F)c(Cl)c2)NC(=O)CN(C)C(=O)[C@@H]1Cc1ccc(C(F)(F)F)cc1 [PP0334] ([NMeL]I[NEtG][Sar][NPrPhe(4-CF3)][Sar][hPhe(3-Cl-4-CF3)][Pro(4,4-F2)][Ac4c][NMeGly(cPent)]D-Morpholide; lactam N-11)	B (a compound having 3 or more and less than 10 is denoted as B)	C (A compound having a KD ratio of 0.1 or more and less than 3 is denoted as C)
CCCN1C(=O)CN(C)C(=O)CN(CC)C(=O)[C@H]([C@@H](C)CC)NC(=O)[C@H](CC(C)C)N(C)C(=O)C[C@@H](C(=O)N2CCOCC2)NC(=O)[C@H](C2CCCC2)N(C)C(=O)C2(CCCC2)NC(=O)[C@@H]2C[C@@H](OCC)CN2C(=O)[C@H](CCc2ccc(C(F)(F)F)c(Cl)c2)NC(=O)CN(C)C(=O)[C@@H]1Cc1ccc(C(F)(F)F)cc1 [PP0335] ([NMeL]I[NEtG][Sar][NPrPhe(4-CF3)][Sar][hPhe(3-Cl-4-CF3)][Hyp](Et)[Ac5c][NMeGly(cPent)]D-Morpholide; lactam N-11)	B (a compound having 3 or more and less than 10 is denoted as B)	C (A compound having a KD ratio of 0.1 or more and less than 3 is denoted as C)
CCCN1C(=O)CN(C)C(=O)CN(CC)C(=O)[C@H]([C@@H](C)CC)NC(=O)[C@H](CC(C)C)N(C)C(=O)C[C@@H](C(=O)N2CCOCC2)NC(=O)[C@H](C2CCCC2)N(C)C(=O)C2(CCC2)NC(=O)[C@@H]2C[C@@H](OCC)CN2C(=O)[C@H](CCc2ccc(C(F)(F)F)c(Cl)c2)NC(=O)CN(C)C(=O)[C@@H]1Cc1ccc(C(F)(F)F)cc1 [PP0336] ([NMeL]I[NEtG][Sar][NPrPhe(4-CF3)][Sar][hPhe(3-Cl-4-CF3)][Hyp](Et)[Ac4c][NMeGly(cPent)]D-Morpholide; lactam N-11)	B (a compound having 3 or more and less than 10 is denoted as B)	B (a compound having 3 or more and less than 10 is denoted as B)
